Here are results for seven compounds from ChEMBL document CHEMBL1155102, “Synthesis of all stereoisomers of KRN7000, the CD1d-binding NKT cell ligand” (Bioorg Med Chem Lett, 2008).

Active and inactive are the calls of the source. The rule behind the calls is not given here.

Holding throughout (format): functional, cell-based
Assay [1] concerns iNKT. Nature of the assay: Induction of IL4 production in human iNKT cells.
In assay [2] the test system is iNKT. Nature of the assay: Induction of IL13 production in human iNKT cells.
Assay [3] has as its system iNKT. Nature of the assay: Induction of IFN-gamma production in human iNKT cells.
The subject of assay [4] is iNKT. Nature of the assay: Induction of IL4 production in mouse iNKT cells.
The test system of assay [5] is iNKT. Nature of the assay: Induction of IFN-gamma production in mouse iNKT cells.
Assay [6] relates to iNKT. Nature of the assay: Induction of IL4/IL13 production in mouse iNKT cells.
The subject of assay [7] is iNKT. Nature of the assay: Induction of proliferation in mouse iNKT cells.

In the case of `CCCCCCCCCCCCCCCCCCCCCCCCCC(=O)N[C@@H](CO[C@H]1O[C@H](CO)[C@H](O)[C@H](O)[C@H]1O)[C@@H](O)[C@@H](O)CCCCCCCCCCCCCC`, the result with iNKT [1], with iNKT [2], with iNKT [3] and with iNKT [4] was Active.
`CCCCCCCCCCCCCCCCCCCCCCCCCC(=O)N[C@@H](CO[C@H]1O[C@H](CO)[C@H](O)[C@H](O)[C@H]1O)[C@H](O)[C@@H](O)CCCCCCCCCCCCCC`: the result in the assay with iNKT [5], in the assay with iNKT [1], with iNKT [2], in the assay on iNKT [6], in the assay with iNKT [3] and in the assay with iNKT [7] was Active.
In the case of `CCCCCCCCCCCCCCCCCCCCCCCCCC(=O)N[C@@H](CO[C@H]1O[C@H](CO)[C@H](O)[C@H](O)[C@H]1O)[C@H](O)[C@H](O)CCCCCCCCCCCCCC`, the result in the assay on iNKT [5], with iNKT [1], with iNKT [2], with iNKT [6], in the assay with iNKT [3] and in the assay with iNKT [7] was Active.
On to `CCCCCCCCCCCCCCCCCCCCCCCCCC(=O)N[C@@H](CO[C@H]1O[C@H](CO)[C@H](O)[C@H](O)[C@H]1O)[C@@H](O)[C@H](O)CCCCCCCCCCCCCC`, for which the outcome in the assay on iNKT [1], with iNKT [2], in the assay with iNKT [3], in the assay with iNKT [4] and in the assay with iNKT [7] was Active.
With `CCCCCCCCCCCCCCCCCCCCCCCCCC(=O)N[C@H](CO[C@H]1O[C@H](CO)[C@H](O)[C@H](O)[C@H]1O)[C@@H](O)[C@H](O)CCCCCCCCCCCCCC`, the result with iNKT [4] was Active.
Turning to `CCCCCCCCCCCCCCCCCCCCCCCCCC(=O)N[C@H](CO[C@H]1O[C@H](CO)[C@H](O)[C@H](O)[C@H]1O)[C@H](O)[C@H](O)CCCCCCCCCCCCCC`, the outcome with iNKT [1] and in the assay on iNKT [3] was inactive.
In the case of `CCCCCCCCCCCCCCCCCCCCCCCCCC(=O)N[C@H](CO[C@H]1O[C@H](CO)[C@H](O)[C@H](O)[C@H]1O)[C@@H](O)[C@@H](O)CCCCCCCCCCCCCC`, the result in the assay with iNKT [7] was Active.
